# Results as given in patent US20190105367A1, “ANTIMICROBIAL 4-OXOQUINOLIZINES” (Emergent Product Development Gaithersburg Inc., priority 2011, published 2019).
# Key:
# A. baumannii A401 [1] = assay: Preliminary MBC without and with sub-inhibitory polymyxin B (Example 4); type: cell-based, Acinetobacter baumannii; conditions: for MBC: 2nd experiment
# A. baumannii NCTC 13301 [2] = assay: MIC without and with sub-inhibitory polymyxin B (Example 4); type: cell-based, Acinetobacter baumannii; conditions: A. baumannii NCTC 13301; +[…] PB; 2nd experiment
# A. baumannii A14 [3] = assay: as above; type: cell-based, Acinetobacter baumannii; conditions: A. baumannii A14, 2nd experiment
# A. baumannii ATCC 19606 [4] = assay: as above; type: cell-based, Acinetobacter baumannii; conditions: A. baumannii ATCC 19606; for MIC: 2nd experiment
# A. baumannii A390 [5] = assay: as above; type: cell-based, Acinetobacter baumannii; conditions: A. baumannii A390; for MIC: 2nd experiment
# A. baumannii A387 [6] = assay: Preliminary MBC without and with sub-inhibitory polymyxin B (Example 4); type: cell-based, Acinetobacter baumannii; conditions: for MBC: 2nd experiment
# A. baumannii A390 [7] = assay: as above; type: cell-based, Acinetobacter baumannii; conditions: for MBC: 2nd experiment
# Protocol: (§1) The plates were incubated for 18-20 hours at 37° C. The MBC was read as the lowest concentration at which colony growth was ca. 90% less than the positive control (i.e. usually where single colonies or no colonies were observed).
# A. baumannii A14 [8] = assay: as above; type: cell-based, Acinetobacter baumannii; conditions: 2nd experiment
# Protocol: as §1
# A. baumannii A473 [9] = assay: as above; type: cell-based, Acinetobacter baumannii; conditions: for MBC: 2nd experiment
# Protocol: as §1
# A. baumannii NCTC 13301 [10] = assay: as above; type: cell-based, Acinetobacter baumannii; conditions: A. baumannii NCTC 13301, preliminary MBC; for MBC: 2nd experiment
# Protocol: as §1
# A. baumannii A14 [11] = assay: as above; type: cell-based, Acinetobacter baumannii; conditions: A. baumannii A14, preliminary MBC, 1st experiment
# A. baumannii A401 [12] = assay: MIC without and with sub-inhibitory polymyxin B (Example 4); type: cell-based, Acinetobacter baumannii; conditions: A baumannii A 401; for MIC: 2nd experiment
# A. baumannii A387 [13] = assay: as above; type: cell-based, Acinetobacter baumannii; conditions: A. baumannii A387; for MIC: 2nd experiment
# [14] = tested on: Acinetobacter sp. (H064200250); assay: as above; type: cell-based; conditions: for MIC: Acinetobacter spp. H064200250 (OXA51), 2nd experiment
# A. baumannii A14 [15] = assay: as above; type: cell-based, Acinetobacter baumannii; conditions: 1st experiment
# A. baumannii A472 [16] = assay: as above; type: cell-based, Acinetobacter baumannii; conditions: A. baumannii A472; for MIC: 2nd experiment
# A. baumannii NCTC 13301 [17] = assay: as above; type: cell-based, Acinetobacter baumannii; conditions: A. baumannii NCTC 13301; +[…] polymyxin B; 1st experiment
# A. baumannii J2 = assay: as above; type: cell-based, Acinetobacter baumannii; conditions: A. baumannii J2
# A. baumannii A473 [18] = assay: as above; type: cell-based, Acinetobacter baumannii; conditions: A. baumannii A473; for MIC: 2nd experiment
# [19] = tested on: strains of A. baumannii and one strain of Acinetobacter sp.; assay: MIC with sub-inhibitory concentrations (0.25x MIC) of polymyxin B, panel of Acinetobacter strains (Example 4); type: cell-based
# A. baumannii A472 [20] = assay: Preliminary MBC without and with sub-inhibitory polymyxin B (Example 4); type: cell-based, Acinetobacter baumannii; conditions: A. baumannii A472, preliminary MBC; for MBC: 2nd experiment
# A. baumannii A489 = assay: MIC without and with sub-inhibitory polymyxin B (Example 4); type: cell-based, Acinetobacter baumannii; conditions: A. baumannii A489; for MIC: 2nd experiment
# A. baumannii ATCC 19606 [21] = assay: Preliminary MBC without and with sub-inhibitory polymyxin B (Example 4); type: cell-based, Acinetobacter baumannii; conditions: for MBC: 2nd experiment
# [22] = +0.06 μg/ml polymyxin B, 1st experiment
# [23] = without polymyxin B, 1st experiment
# [24] = +[…] polymyxin B, 1st experiment
substance,measurement,setting,value
Imipenem/cilastatin,MBC,"A. baumannii A401 [1]; A baumannii A 401, +0.06 μg/ml PB",4 µg/mL
same,MBC +0.06 μg/ml PB,"A. baumannii A401 [1]; A baumannii A 401, +0.06 μg/ml polymyxin B, 1st experiment",8 µg/mL
same,MBC,"A. baumannii A401 [1]; A baumannii A 401, without PB",32 µg/mL
same,MBC without PB,"A. baumannii A401 [1]; A baumannii A 401, without polymyxin B, 1st experiment",32 µg/mL
same,MIC,A. baumannii NCTC 13301 [2],1 µg/mL
same,MIC,A. baumannii A14 [3]; +0.06 μg/ml PB,1 µg/mL
same,MIC,A. baumannii A14 [3]; without PB,1 µg/mL
same,MIC,A. baumannii ATCC 19606 [4]; +0.06 μg/ml PB,1 µg/mL
same,MIC +0.06 μg/ml PB,A. baumannii ATCC 19606 [4]; [22],1 µg/mL
same,MIC,A. baumannii ATCC 19606 [4]; without PB,1 µg/mL
same,MIC,"A. baumannii ATCC 19606 [4]; without PB, value in parentheses marked *, mark not explained",4 µg/mL
same,MIC without PB,A. baumannii ATCC 19606 [4]; [23],2 µg/mL
same,MIC,A. baumannii A390 [5]; +0.06 μg/ml PB,4 µg/mL
same,MIC,A. baumannii A390 [5]; without PB,16 µg/mL
same,MIC without PB,A. baumannii A390 [5]; [23],16 µg/mL
same,MBC,"A. baumannii A387 [6]; A. baumannii A387, +0.06 μg/ml PB",8 µg/mL
same,MBC +0.06 μg/ml PB,"A. baumannii A387 [6]; A. baumannii A387, +0.06 μg/ml polymyxin B, 1st experiment",8 µg/mL
same,MBC,"A. baumannii A387 [6]; A. baumannii A387, without PB",16 µg/mL
same,MBC without PB,"A. baumannii A387 [6]; A. baumannii A387, without polymyxin B, 1st experiment",16 µg/mL
same,MBC,"A. baumannii A390 [7]; A. baumannii A390, +0.06 μg/ml PB",4 µg/mL
same,MBC,"A. baumannii A390 [7]; A. baumannii A390, without PB",16 µg/mL
same,MBC without PB,"A. baumannii A390 [7]; A. baumannii A390, without polymyxin B, 1st experiment",16 µg/mL
same,MBC,"A. baumannii A14 [8]; A. baumannii A14, +0.06 μg/ml PB",0.5 µg/mL
same,MBC,"A. baumannii A14 [8]; A. baumannii A14, without PB",1 µg/mL
same,MBC,"A. baumannii A473 [9]; A. baumannii A473, +0.06 μg/ml PB",4 µg/mL
same,MBC,"A. baumannii A473 [9]; A. baumannii A473, without PB",32 µg/mL
same,MBC without PB,"A. baumannii A473 [9]; A. baumannii A473, without polymyxin B, 1st experiment",32 µg/mL
same,MBC,A. baumannii NCTC 13301 [10]; +[…] PB,0.5 µg/mL
same,MBC +[…] PB,A. baumannii NCTC 13301 [10]; [24],16 µg/mL
same,MBC,A. baumannii NCTC 13301 [10]; without PB,128 µg/mL
same,MBC without PB,A. baumannii NCTC 13301 [10]; [23],128 µg/mL
same,MBC +0.06 μg/ml PB,A. baumannii A14 [11]; +0.06 μg/ml polymyxin B,1 µg/mL
same,MBC without PB,A. baumannii A14 [11]; without polymyxin B,2 µg/mL
same,MIC,A. baumannii A401 [12]; +0.06 μg/ml PB,4 µg/mL
same,MIC +0.06 μg/ml PB,A. baumannii A401 [12]; [22],8 µg/mL
same,MIC,A. baumannii A401 [12]; without PB,32 µg/mL
same,MIC without PB,A. baumannii A401 [12]; [23],32 µg/mL
same,MIC,A. baumannii A387 [13]; +0.06 μg/ml PB,8 µg/mL
same,MIC +0.06 μg/ml PB,A. baumannii A387 [13]; [22],8 µg/mL
same,MIC,A. baumannii A387 [13]; without PB,16 µg/mL
same,MIC without PB,A. baumannii A387 [13]; [23],16 µg/mL
same,MIC,[14]; +[…] PB,0.5 µg/mL
same,MIC,[14]; without PB,8 µg/mL
same,MIC +[…] PB,"[14]; Acinetobacter spp. H064200250, +[…] polymyxin B, 1st experiment",0.5 µg/mL
same,MIC without PB,"[14]; Acinetobacter spp. H064200250, without polymyxin B, 1st experiment",16 µg/mL
same,MIC +0.06 μg/ml PB,A. baumannii A14 [15]; +0.06 μg/ml polymyxin B,1 µg/mL
same,MIC without PB,A. baumannii A14 [15]; without polymyxin B,1 µg/mL
same,MIC,A. baumannii A472 [16]; +[…] PB,0.25 µg/mL
same,MIC +[…] PB,A. baumannii A472 [16]; [24],0.25 µg/mL
same,MIC,A. baumannii A472 [16]; without PB,8 µg/mL
same,MIC without PB,A. baumannii A472 [16]; [23],16 µg/mL
same,MIC +[…] PB,A. baumannii NCTC 13301 [17],16 µg/mL
same,MIC,"A. baumannii J2; +[…] PB, 2nd experiment",≤0.125 µg/mL
same,MIC +[…] PB,A. baumannii J2; [24],≤0.125 µg/mL
same,MIC,"A. baumannii J2; without PB, 2nd experiment",8 µg/mL
same,MIC read with alamar blue,"A. baumannii J2; without PB, value in parentheses, 2nd experiment",4 µg/mL
same,MIC without PB,A. baumannii J2; [23],4 µg/mL
same,MIC,A. baumannii A473 [18]; +0.06 μg/ml PB,4 µg/mL
same,MIC,A. baumannii A473 [18]; without PB,32 µg/mL
same,MIC without PB,A. baumannii A473 [18]; [23],32 µg/mL
same,"MIC range with PB (0.25x MIC) Oct. 1, 2008 n = 8","[19]; 1st experiment, […] polymyxin B, ATCC 19606, A329, A390 and A473 not taken",<0.125 to 16 µg/mL
same,"MIC range with PB (0.25x MIC) Oct. 14, 2008 n = 11","[19]; 2nd experiment, 0.06 μg/ml polymyxin B, all strains except the ATCC strain",≤0.125 to 128 µg/mL
same,MBC,A. baumannii A472 [20]; +[…] PB,0.25 µg/mL
same,MBC +[…] PB,A. baumannii A472 [20]; [24],0.25 µg/mL
same,MBC,A. baumannii A472 [20]; without PB,8 µg/mL
same,MBC without PB,A. baumannii A472 [20]; [23],16 µg/mL
same,MIC,A. baumannii A489; +[…] PB,0.25 µg/mL
same,MIC +[…] PB,A. baumannii A489; [24],2 µg/mL
same,MIC,A. baumannii A489; without PB,64 µg/mL
same,MBC,"A. baumannii ATCC 19606 [21]; A. baumannii ATCC 19606, +0.06 μg/ml PB",1 µg/mL
same,MBC +0.06 μg/ml PB,"A. baumannii ATCC 19606 [21]; A. baumannii ATCC 19606, +0.06 μg/ml polymyxin B, 1st experiment",2 µg/mL
same,MBC,"A. baumannii ATCC 19606 [21]; A. baumannii ATCC 19606, without PB",4 µg/mL
same,MBC without PB,"A. baumannii ATCC 19606 [21]; A. baumannii ATCC 19606, without polymyxin B, 1st experiment",2 µg/mL
